Reference: US20230151003A1, “COMPOUNDS AND METHODS OF USE” (Exelixis, Inc., priority 2020, published 2023)

molecular target: T1, Mer (Homo sapiens, UniProt Q12866); experiment: Mer autophosphorylation ELISA in transient transfected 293A cells; type: cell-based; settings: Table 3 Cellular Activities; MERTK-transfected 293A cells, phospho-Mer ELISA
T1 construct: host or cells: 293A cells (Thermo Fisher #R70507)
T1 sequence (Q12866 21-999): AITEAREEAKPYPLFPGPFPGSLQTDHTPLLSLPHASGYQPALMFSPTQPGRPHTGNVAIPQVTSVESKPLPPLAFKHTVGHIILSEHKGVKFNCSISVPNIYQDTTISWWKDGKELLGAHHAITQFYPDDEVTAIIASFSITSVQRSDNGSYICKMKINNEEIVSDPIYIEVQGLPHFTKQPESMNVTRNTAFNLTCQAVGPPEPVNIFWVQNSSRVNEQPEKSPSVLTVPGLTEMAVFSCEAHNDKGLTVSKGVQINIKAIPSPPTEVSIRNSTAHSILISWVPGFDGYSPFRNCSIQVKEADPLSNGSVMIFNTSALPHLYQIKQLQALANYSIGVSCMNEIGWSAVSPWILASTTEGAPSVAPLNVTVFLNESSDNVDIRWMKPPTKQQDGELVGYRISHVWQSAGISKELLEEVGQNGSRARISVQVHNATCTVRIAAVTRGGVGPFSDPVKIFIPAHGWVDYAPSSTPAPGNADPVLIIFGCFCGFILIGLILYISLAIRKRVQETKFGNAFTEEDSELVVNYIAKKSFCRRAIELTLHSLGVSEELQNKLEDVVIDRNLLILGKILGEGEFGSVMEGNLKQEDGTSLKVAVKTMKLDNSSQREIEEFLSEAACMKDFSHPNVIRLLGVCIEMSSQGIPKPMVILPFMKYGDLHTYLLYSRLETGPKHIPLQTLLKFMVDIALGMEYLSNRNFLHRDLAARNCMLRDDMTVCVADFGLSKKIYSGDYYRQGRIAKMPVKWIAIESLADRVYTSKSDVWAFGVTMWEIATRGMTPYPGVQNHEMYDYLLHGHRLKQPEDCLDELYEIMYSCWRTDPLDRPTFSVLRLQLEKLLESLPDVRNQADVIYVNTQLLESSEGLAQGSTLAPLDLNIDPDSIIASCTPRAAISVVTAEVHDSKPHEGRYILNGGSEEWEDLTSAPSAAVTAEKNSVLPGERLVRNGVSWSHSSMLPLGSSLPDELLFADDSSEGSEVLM
Outline: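 Phospho-Mer quantified by ELISA in lysates of transiently MERTK-transfected 293A cells after 1 h exposure to an 8-point compound series, serum-free, 0.3% DMSO. Activity normalized between DMSO-treated (100%) and reference inhibitor-treated (0%) lysates; IC50 via 4-parameter nonlinear regression.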

IC50, ≤ 100 nM:
COc1cc2nccc(Oc3ccc(NC(=O)c4cnc(C)c(-c5cccs5)c4O)cc3F)c2nc1OC [Compound 90, N-[4-[(6,7-Dimethoxy-1,5-naphthyridin-4-yl)oxy]-3-fluoro-phenyl]-4-hydroxy-6-methyl-5-(2-thienyl)pyridine-3-carboxamide]
COc1cc2nccc(Oc3ccc(NC(=O)c4cnc(C)c(-c5cc(C(F)(F)F)nn5C)c4O)cc3F)c2nc1OC [Compound 105]
COc1cc2nccc(Oc3ccc(NC(=O)c4c(C)nc(C)c(-c5sccc5C)c4O)cc3F)c2nc1OC [Compound 139, N-[4-[(6,7-Dimethoxy-1,5-naphthyridin-4-yl)oxy]-3-fluorophenyl]-4-hydroxy-2,6-dimethyl-5-(3-methylthiophen-2-yl)pyridine-3-carboxamide]
COc1cc2nccc(Oc3ccc(NC(=O)c4c(C)nc(C)c(-c5ccco5)c4O)cc3F)c2nc1OC [Compound 135, N-[4-[(6,7-Dimethoxy-1,5-naphthyridin-4-yl)oxy]-3-fluorophenyl]-5-(furan-2-yl)-4-hydroxy-2,6-dimethylpyridine-3-carboxamide]
COc1cc2nccc(Oc3ccc(NC(=O)c4c(C)nc(C)c(-c5ccc(C6CC6)o5)c4O)cc3F)c2nc1OC [Compound 155B, 5-(5-Cyclopropylfuran-2-yl)-N-[4-[(6,7-dimethoxy-1,5-naphthyridin-4-yl)oxy]-3-fluorophenyl]-4-hydroxy-2,6-dimethylpyridine-3-carboxamide]
COCc1nc(C)c(-c2ccccn2)c(O)c1C(=O)Nc1ccc(Oc2ccnc3cc(OC)c(OC)nc23)c(F)c1 [Compound 195, N-[4-[(6,7-Dimethoxy-1,5-naphthyridin-4-yl)oxy]-3-fluorophenyl]-4-hydroxy-2-(methoxymethyl)-6-methyl-5-pyridin-2-ylpyridine-3-carboxamide]
COc1cc2nccc(Oc3ccc(NC(=O)c4cnc(C)c(-c5ccnn5C)c4O)cc3F)c2nc1OC [Compound 104]
COc1cnc2c(Oc3ccc(NC(=O)c4cnc(C)c(-c5ccc(C)s5)c4O)cc3F)ccnc2c1 [Compound 101, N-[3-Fluoro-4-[(7-methoxy-1,5-naphthyridin-4-yl)oxy]phenyl]-4-hydroxy-6-methyl-5-(5-methyl-2-thienyl) pyridine-3-carboxamide]
COc1nc2c(Oc3ccc(NC(=O)c4c(C)n(C)c(C)c(-c5ccco5)c4=O)cc3F)ccnc2cc1OCCC1CCC1 [Compound 337, N-[4-[[7-(2-Cyclobutylethoxy)-6-methoxy-1,5-naphthyridin-4-yl]oxy]-3-fluorophenyl]-5-(furan-2-yl)-1,2,6-trimethyl-4-oxopyridine-3-carboxamide]
COc1cc2nccc(Oc3ccc(NC(=O)c4cnc(C)c(-c5sccc5C)c4O)cc3F)c2nc1OC [Compound 103, N-[4-[(6,7-Dimethoxy-1,5-naphthyridin-4-yl)oxy]-3-fluoro-phenyl]-4-hydroxy-6-methyl-5-(3-methyl-2-thienyl) pyridine-3-carboxamide]
COc1cc2nccc(Oc3ccc(NC(=O)c4c(C)nc(C)c(-c5ccc(C)o5)c4O)cc3F)c2nc1OC [Compound 110, N-[4-[(6,7-Dimethoxy-1,5-naphthyridin-4-yl)oxy]-3-fluoro-phenyl]-4-hydroxy-2,6-dimethyl-5-(5-methyl-2-furyl)pyridine-3-carboxamide]
COc1cc2nccc(Oc3ccc(NC(=O)c4cn(CCF)c(C)c(-c5ccsc5)c4=O)cc3F)c2nc1OC [Compound 332, N-[4-[(6,7-Dimethoxy-1,5-naphthyridin-4-yl)oxy]-3-fluorophenyl]-1-(2-fluoroethyl)-6-methyl-4-oxo-5-thiophen-3-ylpyridine-3-carboxamide]
COc1cc2nccc(Oc3ccc(NC(=O)c4cnc(C)c(-c5ccc(C(C)C)o5)c4O)cc3F)c2nc1OC [Compound 154, N-[4-[(6,7-Dimethoxy-1,5-naphthyridin-4-yl)oxy]-3-fluorophenyl]-4-hydroxy-6-methyl-5-(5-propan-2-ylfuran-2-yl)pyridine-3-carboxamide]
COc1cc2nccc(Oc3ccc(NC(=O)c4c(C)nc(C)c(-c5cccs5)c4O)cc3F)c2nc1OC [Compound 107]
COc1cc2nccc(Oc3ccc(NC(=O)c4c(C)nc(C)c(-c5ccsc5)c4O)cc3F)c2nc1OC [Compound 106]
COc1cc2nccc(Oc3ccc(NC(=O)c4c(C)ncc(-c5ccco5)c4O)cc3F)c2nc1OC [Compound 119, N-[4-[(6,7-Dimethoxy-1,5-naphthyridin-4-yl)oxy]-3-fluorophenyl]-5-(furan-2-yl)-4-hydroxy-2-methylpyridine-3-carboxamide]
COc1cnc2c(Oc3ccc(NC(=O)c4cnc(C)c(-c5cc(C)cs5)c4O)cc3F)ccnc2c1 [Compound 102, N-[3-Fluoro-4-[(7-methoxy-1,5-naphthyridin-4-yl)oxy]phenyl]-4-hydroxy-6-methyl-5-(4-methyl-2-thienyl) pyridine-3-carboxamide]
COc1cnc2c(Oc3ccc(NC(=O)c4cn(CCF)c(C)c(-c5ccoc5)c4=O)cc3F)ccnc2c1 [Compound 334, 1-(2-Fluoroethyl)-N-[3-fluoro-4-[(7-methoxy-1,5-naphthyridin-4-yl)oxy]phenyl]-5-(furan-3-yl)-6-methyl-4-oxopyridine-3-carboxamide]
COc1cnc2c(Oc3ccc(NC(=O)c4cnc(C)c(-c5ccco5)c4O)cc3)ccnc2c1 [Compound 129, 5-(Furan-2-yl)-4-hydroxy-N-[4-[(7-methoxy-1,5-naphthyridin-4-yl)oxy]phenyl]-6-methylpyridine-3-carboxamide]
COc1cc2nccc(Oc3ccc(NC(=O)c4c(C)nc(C)c(-c5ccnn5C)c4O)cc3F)c2nc1OC [Compound 108, N-[4-[(6,7-Dimethoxy-1,5-naphthyridin-4-yl)oxy]-3-fluoro-phenyl]-4-hydroxy-2,6-dimethyl-5-(2-methylpyrazol-3-yl) pyridine-3-carboxamide]
COc1cc2nccc(Oc3ccc(NC(=O)c4cnc(C)c(-c5ccco5)c4O)cc3F)c2nc1OC [Compound 89, N-[4-[(6,7-Dimethoxy-1,5-naphthyridin-4-yl)oxy]-3-fluorophenyl]-5-(furan-2-yl)-4-hydroxy-6-methylpyridine-3-carboxamide]
